Laboratory results from PMC6386929, “Evaluation of the Antimicrobial Activity of Cationic Peptides Loaded in Surface-Modified Nanoliposomes against Foodborne Bacteria” (International Journal of Molecular Sciences, 2019).
Where no end group is shown, it is not given here.

How the values were obtained:
human erythrocytes = details: cited from earlier work
Source text: (§1) Alyteserin-1c is an AMP comprising a 23 amino acid residue (net charge: +2) and was first isolated from norepinephrine-stimulated skin secretions from the midwife toad Alytes obstetricans. […] Although AMPs are an alternative means for eliminating bacteria in foods, due to their biocompatibility, biodegradability, broad spectrum of activity and potent bactericidal properties, most ...

E. coli = details: cited from earlier work
Source text: as §1

[1] = Surface tension (pendant drop) and aggregation index (dual-angle DLS) of peptides in aqueous media; type: physicochemical; details: PBS pH 7.2, 138 mM NaCl; peptide 0–50 µM; pendant drop and dual-angle DLS (173° and 13°); triplicate
Description: Surface tension measurements of the peptides were carried out using a contact angle meter (OCA15EC Dataphysics Instruments, Filderstadt, Germany) with a software driver (version 4.5.14 SCA22), where the data capture was recorded using an IDS video camera. For this, the pendant-drop method was performed in triplicate, where peptide concentrations between 0 and 50 µM were prepared with ultrapure water and phosphate buffer saline pH 7.2 (PBS, 138 mM NaCl, 3 mM KCl, 1.5 mM NaH2PO4, 8.1 mM Na2HPO4). The samples of peptides +2 and +5 were prepared in serial concentrations between 0 and 50 µM in PBS buffer pH 7.2 at 138 mM of ionic strength. An aliquot was analysed immediately after preparation. Dual angle DLS measurements (173° and 13°) of automatic duration were carried out using a Zetasizer Nano ZSP (Malvern Instruments, Worcestershire, United Kingdom). The Aggregation Index is a parameter based on the mean z-average size measured for the two angles of scattering according to the equation: (1) Aggregation index=[Zfwd/Zbkd−1] where, Zfwd is the average particle size detected by forward scatter optics at 13°. Trace amounts of aggregate are often highly useful for the enhanced detection of large protein aggregates, whereas Zbkd is the particle size average at a detection angle of 173° (non-invasive back-scatter).

E. coli ATCC25922 = type: cell-based, Escherichia coli
Source text: (§2) L. monocytogenes ATCCbaa751 and E. coli ATCC25922, were obtained from the American Type Culture Collection (ATCC; Rockville, MD, USA). NovaPEG Rink Amida resin, Fmoc-protected amino acids, 2-(1H-benzotriazole-1-yl)-1,1,3,3-tetramethyluronium tetrafluoro-borate (TBTU), Piperidine, N,N-Diisopropylethylamine (DIEA), Ninhydrin, Dimethylformamide (DMF), Trifluoroacetic acid (TFA), 1,2-Ethanedithiol (EDT), Triisopropylsilane (TIS) and Mueller Hinton Broth (MHB) were purchased in Merck (Darmstadt, Germany). Cholesterol, Epikuron 200® and dioleoyl-phosphatidyl-ethanolamine (DOPE) were obtained from Avanti Polar Lipids (Alabaster, Alabama, USA). Eudragit® E-100 was purchased in Evonik (Darmstadt, Germany). Ampicillin (Fersinsa Gb) was supplied by Tecnoquímicas S.A. (Cali, Colombia) and Gentamicin solution (GENFAR®, Cali, Colombia) was purchased from a local pharmacy. The datasets used and materials using during this study are available from the corresponding author on reasonable request.
(§3) Microbial susceptibility tests were performed according to clinical and laboratory standards institute (CLSI) standard methods. Bacteria were inoculated in MHB and incubated overnight at 37 °C. […] After incubation, the minimum inhibitory concentration (MIC) was determined by visual analysis.

[2] = system: L. monocytogenes ATCCbaa751; type: cell-based, Listeria monocytogenes
Source text: as §2, §3

| Sequence | hemolytic activity (human erythrocytes) | MIC (E. coli) | concentration at which changes in surface tension and aggregation index are achieved [1] | MIC (E. coli ATCC25922) | MIC [2] |
| --- | --- | --- | --- | --- | --- |
| GLKEIFKAGLGSLVKGIAAHVAS [peptide +2, Alyteserin-1c] | low hemolytic activity | 25 µM | 20 µM | 15.2 µM | 125 µM |
| GLKRIFKSGLGKLVKGISAHVAS [peptide +5] |  |  | 5 to 10 µM | 62.5 µM | 62.5 µM |
